Structures can show the parent of a compound that is named as a salt. Where two headings read alike, the source gives them in different places.
How the values were obtained:
T. cruzi CAI/72 strain = assay: Antiparasitic activity in C2C12 cells infected with T. cruzi CAI/72 (image-based assay); type: cell-based; settings: Trypanosoma cruzi; for EC50: mean of three experiments in triplicate (n = 9) ± SD
Protocol: Antiparasitic activity and cytotoxicity of compounds were determined as described before (da Silva et al., Boudreau et al.). Mouse myoblasts cell line C2C12 (ATCCCRL-1772), were maintained in high glucose (4.5 g/L glucose) Dulbecco’s modified Eagle’s medium (DMEM Gibco), supplemented with 1% penicillin–streptomycin 10,000 U/mL (Gibco) and 5% fetal bovine serum (FBS, Sigma-Aldrich) at 37 °C with 5% CO2. parasites (CAI/72 strain, DTU TcI) were maintained by weekly coinfection with C2C12 cells. For all activity assays, C2C12 cells were infected at a 10:1 parasite-to-cell ratio with culture-derived trypomastigotes, which were harvested from the supernatant of infected C2C12 cells. After adding compounds to 384-well black clear-bottom plates (Greiner cat. no. 781091), trypomastigotes (7000 parasites/well) and C2C12 cells (700 cells/well) were seeded in a total volume of 50 μL of DMEM per well in the 384-well plates. Compounds were first tested at 10 μM. […] Plates were imaged with the automated ImageXpress MicroXL microscope (Molecular Devices) and analyzed by MetaXpress software (Molecular Devices) using a custom module optimized for this assay. Infection levels (parasites per host cell) were normalized to the positive control (40 μM BNZ) and negative control (DMSO). Antiparasitic activity (EC50) ± standard deviation (SD) and host cell cytotoxicity (C2C12 viability) values were determined from the DRC using Prism software (GraphPad Software, La Jolla, CA). Every assay has three biological replicates, each in triplicates (n = 9 data points).

[1] = Host cell cytotoxicity (C2C12 viability); type: cell-based, Mouse; settings: mouse; for viability at 48 h, 10 µM: < 50% viability considered cytotoxic; for CC50 at 48 h: viability calculated at 10 μM
Protocol: Antiparasitic activity and cytotoxicity of compounds were determined as described before (da Silva et al., Boudreau et al.). Mouse myoblasts cell line C2C12 (ATCCCRL-1772), were maintained in high glucose (4.5 g/L glucose) Dulbecco’s modified Eagle’s medium (DMEM Gibco), supplemented with 1% penicillin–streptomycin 10,000 U/mL (Gibco) and 5% fetal bovine serum (FBS, Sigma-Aldrich) at 37 °C with 5% CO2. parasites (CAI/72 strain, DTU TcI) were maintained by weekly coinfection with C2C12 cells. For all activity assays, C2C12 cells were infected at a 10:1 parasite-to-cell ratio with culture-derived trypomastigotes, which were harvested from the supernatant of infected C2C12 cells. After adding compounds to 384-well black clear-bottom plates (Greiner cat. no. 781091), trypomastigotes (7000 parasites/well) and C2C12 cells (700 cells/well) were seeded in a total volume of 50 μL of DMEM per well in the 384-well plates. Compounds were first tested at 10 μM. […] After 48 h at 37 °C and 5% CO2, plates were fixed with 4% formaldehyde solution for at least 1 h, washed with 1× PBS, and stained with 5 μg/mL of 4′,6-diamidino-2-phenylindole (DAPI) for at least 1 h prior to reading. Plates were imaged with the automated ImageXpress MicroXL microscope (Molecular Devices) and analyzed by MetaXpress software (Molecular Devices) using a custom module optimized for this assay. Infection levels (parasites per host cell) were normalized to the positive control (40 μM BNZ) and negative control (DMSO). Antiparasitic activity (EC50) ± standard deviation (SD) and host cell cytotoxicity (C2C12 viability) values were determined from the DRC using Prism software (GraphPad Software, La Jolla, CA). Every assay has three biological replicates, each in triplicates (n = 9 data points).

recombinant Cz (cruzain) = molecular target: T1, recombinant Cz (cruzain) (Trypanosoma cruzi, UniProt P25779); assay: biochemical; settings: read-out: Cz inhibition (%), 10 µM
T1 construct: Cz was expressed and purified as described in da Silva et al; made in house
T1 sequence (P25779 123-337 limits assumed): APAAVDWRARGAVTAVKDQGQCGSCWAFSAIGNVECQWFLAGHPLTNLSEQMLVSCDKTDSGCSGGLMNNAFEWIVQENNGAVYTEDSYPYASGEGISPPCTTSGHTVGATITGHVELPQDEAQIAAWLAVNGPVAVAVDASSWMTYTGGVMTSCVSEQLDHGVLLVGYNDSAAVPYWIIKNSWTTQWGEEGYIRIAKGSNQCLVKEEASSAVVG
Protocol: The screening assay was performed using 1 nM of Cz diluted in 0.1 M sodium acetate pH 5.5, 1 mM dithiothreitol (DTT), and 0.01% Triton X-100. Cz was expressed and purified as described in da Silva et al. The reaction starts after 10 min incubating the enzyme with the compounds (10 μM), when adding 2.5 μM of the substrate Z-FR-AMC final concentration (Z-Phe-Arg-amidomethylcoumarin, Sigma-Aldrich, C9521) diluted in the same assay buffer (final volume of 30 μL). The experiment was performed for 10 min. […] The DRC was performed with at least nine different concentrations of the inhibitors, diluted by 2-fold serial dilution, ranging from […] to 10 μM.
All experiments were accomplished in a 384-well black microplate, using a Synergy HTX (Biotek) plate reader at 25 °C with absorption/emission wavelengths of 360/460 nm. All assays were performed in triplicate wells and DMSO was used as a vehicle control. Enzymatic activity was measured and normalized to DMSO controls, and the inhibitor E-64 (10 μM) was used as a positive control for all assays. All experiments were performed in triplicates, with at least two independent assays (n = 6 data points). IC50 values were determined through nonlinear regression. Obtained data were treated and analyzed using GraphPad Prism 9.0 (GraphPad Software, La Jolla, California).

[2] = C2C12, read-out: Anti-Tc CAI/72 activity (%)
[3] = 10 µM, C2C12 infected cells, read-out: Anti-Tc CAI/72 activity (%)
[4] = C2C12 myoblast cells infected with trypomastigotes

C/C(=N\Nc1nc(C)c[se]1)C12CC3CC(CC(C3)C1)C2 [Se2q, 2-(2-((E)-1-((3s)-Adamantan-1-yl)ethylidene)hydrazineyl)-4-methyl-1,3-selenazole]
inhibition at 10 µM (T. cruzi CAI/72 strain; [2]): 40.6%
viability at 48 h, 10 µM [1]: > 100%

C/C(=N\Nc1nc(C)c[se]1)c1ccsc1 [Se2l, (E)-4-Methyl-2-(2-(1-(thiophen-3-yl)ethylidene)hydrazineyl)-1,3-selenazole Hydrochloride]
EC50 (T. cruzi CAI/72 strain; C2C12, 48 h, read-out: EC50 Tc CAI/72, intracellular amastigotes in C2C12 cells, 48 h): 3.73 µM
inhibition at 10 µM (T. cruzi CAI/72 strain; [2]): 50.4%
viability at 48 h, 10 µM [1]: > 100%
CC50 at 48 h [1]: > 10 µM

C/C(=N\NC(N)=[Se])C12CC3CC(CC(C3)C1)C2 [Se1q, (E)-2-(1-((3r,5r,7r)-Adamantan-1-yl)ethylidene)hydrazine-1-carboselenoamide]
inhibition at 10 µM (recombinant Cz (cruzain)): 83.8%
inhibition at 10 µM (T. cruzi CAI/72 strain; [2]): 16.2%
viability at 48 h, 10 µM [1]: 78.6%

C/C(=N\NC(N)=S)c1ccc(F)c(F)c1 [Compound S1j, (E)-2-(1-(3,4-Difluorophenyl)ethylidene)hydrazine-1-carbothioamide]
inhibition at 10 µM (recombinant Cz (cruzain)): 99.8%
inhibition at 10 µM (T. cruzi CAI/72 strain; [3]): 49.9%
viability at 48 h, 10 µM [1, 4]: > 100%

COc1ccc(/C(C)=N/Nc2nc(C)c[se]2)c(OC)c1 [Se2k, (E,Z)-2-(2-(1-(2,4-Dimethoxyphenyl)ethylidene)hydrazineyl)-4-methyl-1,3-selenazole Hydrochloride]
inhibition at 10 µM (T. cruzi CAI/72 strain; [2]): 38.1%
viability at 48 h, 10 µM [1]: > 100%

C/C(=N\NC(N)=[Se])c1ccc(F)c(F)c1 [Se1j, (E)-2-(1-(3,4-Difluorophenyl)ethylidene)hydrazine-1-carboselenoamide]
inhibition at 10 µM (recombinant Cz (cruzain)): 102%
viability at 48 h, 10 µM [1]: 27.7%

C/C(=N\Nc1nc(C)cs1)c1ccsc1 [Compound S2l, (E)-4-Methyl-2-(2-(1-(thiophen-3-yl)ethylidene)hydrazineyl)thiazole Hydrochloride]
inhibition at 10 µM (recombinant Cz (cruzain)): 31.6%
inhibition at 10 µM (T. cruzi CAI/72 strain; [3]): 19.5%
viability at 48 h, 10 µM [1, 4]: > 100%

C/C(=N\NC(N)=S)c1ccc(C(F)(F)F)cc1 [Compound S1d, (E)-2-(1-(4-(Trifluoromethyl)phenyl)ethylidene)hydrazine-1-carbothioamide]
inhibition at 10 µM (recombinant Cz (cruzain)): 85.8%
inhibition at 10 µM (T. cruzi CAI/72 strain; [3]): 43.8%
viability at 48 h, 10 µM [1, 4]: 93.1%

C/C(=N\Nc1nc(C)c[se]1)c1ccc(C(F)(F)F)cc1 [Se2d, (E)-4-Methyl-2-(2-(1-(4-(trifluoromethyl)phenyl)ethylidene)hydrazineyl)-1,3-selenazole Hydrochloride]
inhibition at 10 µM (recombinant Cz (cruzain)): 95.2%
inhibition at 10 µM (T. cruzi CAI/72 strain; [2]): 27.9%
viability at 48 h, 10 µM [1]: 96.1%

O=C(Cn1ccnc1[N+](=O)[O-])NCc1ccccc1 [BZ, Benznidazole, reference compound]
inhibition at 40 µM (T. cruzi CAI/72 strain; 40 µM (BZ), C2C12 infected cells, read-out: Anti-Tc CAI/72 activity (%)): 81.7%
EC50 (T. cruzi CAI/72 strain; intracellular amastigotes in C2C12 cells, 48 h, read-out: EC50 Tc CAI/72): 5.79 ± 1.2 µM
viability at 48 h, 10 µM [1, 4]: > 100%
CC50 at 48 h [1, 4]: > 10 µM

C/C(=N\NC(N)=[Se])c1cc2ccccc2o1 [Se1p, (E)-2-(1-(Benzofuran-2-yl)ethylidene)hydrazine-1-carboselenoamide]
inhibition at 10 µM (recombinant Cz (cruzain)): 102%
inhibition at 10 µM (T. cruzi CAI/72 strain; [2]): 28.8%
viability at 48 h, 10 µM [1]: 39.4%

C/C(=N\Nc1nc(C)cs1)c1ccc(C#N)cc1 [Compound S2e, (E)-4-(1-(2-(4-Methylthiazol-2-yl)hydrazineylidene)ethyl)benzonitrile Hydrochloride]
inhibition at 10 µM (recombinant Cz (cruzain)): 89.8%
inhibition at 10 µM (T. cruzi CAI/72 strain; [3]): 22.4%
viability at 48 h, 10 µM [1, 4]: > 100%

C/C(=N\NC(N)=S)c1cc2ccccc2o1 [Compound S1p, (E)-2-(1-(Benzofuran-2-yl)ethylidene)hydrazine-1-carbothioamide]
inhibition at 10 µM (recombinant Cz (cruzain)): 99.3%
inhibition at 10 µM (T. cruzi CAI/72 strain; [3]): 49.7%
viability at 48 h, 10 µM [1, 4]: > 100%

C/C(=N\Nc1nc(C)cs1)C12CC3CC(CC(C3)C1)C2 [Compound S2q, 2-(2-((E)-1-((3s)-Adamantan-1-yl)ethylidene)hydrazineyl)-4-methylthiazole Hydrochloride]
inhibition at 10 µM (recombinant Cz (cruzain)): 30.5%
inhibition at 10 µM (T. cruzi CAI/72 strain; [3]): 40.5%
viability at 48 h, 10 µM [1, 4]: > 100%

C/C(=N\Nc1nc(C)c[se]1)c1csc2ccccc12 [Se2o, (E)-2-(2-(1-(Benzo[b]thiophen-3-yl)ethylidene)hydrazineyl)-4-methyl-1,3-selenazole Hydrochloride]
inhibition at 10 µM (recombinant Cz (cruzain)): 101%
inhibition at 10 µM (T. cruzi CAI/72 strain; [2]): 42.3%
viability at 48 h, 10 µM [1]: > 100%

COc1ccc(/C(C)=N/Nc2nc(C)c[se]2)cc1 [Se2b, (E)-2-(2-(1-(4-Methoxyphenyl)ethylidene)hydrazineyl)-4-methyl-1,3-selenazole Hydrochloride]
inhibition at 10 µM (recombinant Cz (cruzain)): 21.6%
inhibition at 10 µM (T. cruzi CAI/72 strain; [2]): 12.1%
viability at 48 h, 10 µM [1]: 94%

C/C(=N\Nc1nc(C)c[se]1)c1cc2ccccc2o1 [Se2p, (E)-2-(2-(1-(Benzofuran-2-yl)ethylidene)hydrazineyl)-4-methyl-1,3-selenazole Hydrochloride]
inhibition at 10 µM (recombinant Cz (cruzain)): 98.5%
inhibition at 10 µM (T. cruzi CAI/72 strain; [2]): 26.6%
viability at 48 h, 10 µM [1]: > 100%

C/C(=N\Nc1nc(C)cs1)c1cc2ccccc2o1 [Compound S2p, (E)-2-(2-(1-(Benzofuran-2-yl)ethylidene)hydrazineyl)-4-methylthiazole Hydrochloride]
inhibition at 10 µM (recombinant Cz (cruzain)): 74.3%
inhibition at 10 µM (T. cruzi CAI/72 strain; [3]): 31.4%
viability at 48 h, 10 µM [1, 4]: > 100%

COc1cccc(/C(C)=N/Nc2nc(C)cs2)c1 [Compound S2g, (E)-2-(2-(1-(3-Methoxyphenyl)ethylidene)hydrazineyl)-4-methylthiazole hydrochloride]
inhibition at 10 µM (recombinant Cz (cruzain)): 45.1%
inhibition at 10 µM (T. cruzi CAI/72 strain; [3]): 40.6%
viability at 48 h, 10 µM [1, 4]: > 100%

C/C(=N\Nc1nc(C)cs1)c1ccc([N+](=O)[O-])cc1 [Compound S2c, (E)-4-Methyl-2-(2-(1-(4-nitrophenyl)ethylidene)hydrazineyl)thiazole Hydrochloride]
inhibition at 10 µM (recombinant Cz (cruzain)): 96.7%
viability at 48 h, 10 µM [1, 4]: 99.2%

C/C(=N\Nc1nc(C)cs1)c1ccc(C(F)(F)F)cc1 [Compound S2d, (E)-4-Methyl-2-(2-(1-(4-(trifluoromethyl)phenyl)ethylidene)hydrazineyl)thiazole Hydrochloride]
inhibition at 10 µM (recombinant Cz (cruzain)): 41.6%
viability at 48 h, 10 µM [1, 4]: > 100%

COc1ccc(/C(C)=N/NC(N)=[Se])c(OC)c1 [Se1k, (E,Z)-2-(1-(2,4-Dimethoxyphenyl)ethylidene)hydrazine-1-carboselenoamide]
inhibition at 10 µM (recombinant Cz (cruzain)): 92.5%
viability at 48 h, 10 µM [1]: 43.7%
